In brackets after ≈: the same amount, converted by molar mass. Read-outs that look alike come from different tables or passages of the source. Positions of bridges follow the written chain, without caps; N, C: chain ends. Non-standard residues stand in square brackets, D forms with d. Residues, ends and D or L forms follow the SMILES beside them. No end group written: not given here. *: point of attachment. X1 = CC[C@H](C)CCCCC(=O)*; Dab = NCC[C@H](N)C(=O)O
Tests used:
E. coli ML-35p [1] = test: Resistance induction experiment; format: cell-based, Escherichia coli; conditions: after 25 passages under selection; MH broth, 0.9% NaCl
Protocol: (§1) Resistance induction experiments were performed using the previously described method ([Chernysh et al., 2015]) with some modifications. Briefly, on day 1, the overnight culture of wild-type bacteria was diluted with the 2× MH broth containing 1.8% NaCl so that to reach a final cell concentration of 10^6 CFU/ml. 50 μl aliquots of the obtained bacterial suspension were added to 50 μl of the peptide solutions serially diluted with 0.1% water solution of BSA in 96-well microplates (Eppendorf #0030730011). After incubation at 37°C and 900 rpm for 22 ± 2 h, MICs were determined as described above. For each subsequent daily transfer, 5 μl of the inoculum taken from the first well with a sub-inhibitory drug concentration were diluted with 1 ml of the fresh 2× MH broth supplemented with 1.8% NaCl. […] 26 repeated passages in the presence of antimicrobial agents were made for each bacterial strain during the experiment. […] Control serial passages in the absence of the agent were also performed.

E. coli XDR CI 1057 = conditions: MH broth, 0.9% NaCl
Protocol: Resistance induction experiments were performed using the previously described method ([Chernysh et al., 2015]) with some modifications. Briefly, on day 1, the overnight culture of wild-type bacteria was diluted with the 2× MH broth containing 1.8% NaCl so that to reach a final cell concentration of 10^6 CFU/ml. 50 μl aliquots of the obtained bacterial suspension were added to 50 μl of the peptide solutions serially diluted with 0.1% water solution of BSA in 96-well microplates (Eppendorf #0030730011). After incubation at 37°C and 900 rpm for 22 ± 2 h, MICs were determined as described above. For each subsequent daily transfer, 5 μl of the inoculum taken from the first well with a sub-inhibitory drug concentration were diluted with 1 ml of the fresh 2× MH broth supplemented with 1.8% NaCl. […] Control serial passages in the absence of the agent were also performed.

[2] = test system: P. mirabilis (XDR CI 3423); test: microbe, parasite or virus in culture; format: cell-based, Proteus mirabilis; conditions: Table S2, XDR clinical isolate; NaCl content of medium not stated; read-out: Minimum inhibitory concentration
Protocol: (§2) Antimicrobial assay was performed as described previously ([Panteleev et al., 2017b]). Briefly, mid-log phase bacterial test cultures were diluted with the 2× Mueller-Hinton broth (MH, Sigma) supplemented with 1.8% NaCl or without it so that to reach a final cell concentration of 10^6 CFU/ml. 50 μl aliquots of the obtained bacterial suspension were added to 50 μl of the peptide solutions serially diluted with 0.1% water solution of bovine serum albumin (BSA) in 96-well flat-bottom polystyrene microplates (Eppendorf #0030730011). After incubation at 37°C and 900 rpm for 24 h the minimum inhibitory concentrations (MIC) were determined as the lowest peptide concentrations that prevented growth of a test microorganism observed as visible turbidity. The results were expressed as the median values determined on the basis of at least three independent experiments performed in triplicate.

[3] = test system: E. coli XDR CI 1057 (26 days without antimicrobial agent)
Protocol: as §2, with “After incubation at 37°C and 900 rpm for 24 h the minimum inhibitory concentrations (MIC) were determined as the lowest peptide concentrations that prevented growth of a test microorganism observed as visible turbidity.” left out
as §1

[4] = test system: E. coli XDR CI 1057 (26 days with synergy combination); conditions: Table 4, strain after 26 days with synergy combination (selection in MH broth with 0.9% NaCl)
Protocol: as §2, with “After incubation at 37°C and 900 rpm for 24 h the minimum inhibitory concentrations (MIC) were determined as the lowest peptide concentrations that prevented growth of a test microorganism observed as visible turbidity.” left out
as §1

[5] = test system: E. coli XDR CI 1057 (26 days with mini-ChBac7.5Nα)
Protocol: as §2, with “After incubation at 37°C and 900 rpm for 24 h the minimum inhibitory concentrations (MIC) were determined as the lowest peptide concentrations that prevented growth of a test microorganism observed as visible turbidity.” left out
as §1

[6] = test system: P. aeruginosa (XDR CI 1049); test: microbe, parasite or virus in culture; format: cell-based, Pseudomonas aeruginosa; conditions: Table S2, XDR clinical isolate; NaCl content of medium not stated; read-out: Minimum inhibitory concentration
Protocol: as §2

[7] = test system: A. baumannii (XDR CI 2675); test: microbe, parasite or virus in culture; format: cell-based, Acinetobacter baumannii; conditions: read-out: Minimum inhibitory concentration
Protocol: as §2

[8] = test system: K. pneumoniae (XDR CI 1056); test: microbe, parasite or virus in culture; format: cell-based, Klebsiella pneumoniae; conditions: Table S2, XDR clinical isolate; NaCl content of medium not stated; read-out: Minimum inhibitory concentration
Protocol: as §2

E. cloacae (XDR CI 4172) = test: microbe, parasite or virus in culture; format: cell-based, Enterobacter cloacae; conditions: read-out: Minimum inhibitory concentration
Protocol: as §2

E. coli (XDR CI 1057) = test: microbe, parasite or virus in culture; format: cell-based, Escherichia coli
Protocol: as §2

[9] = test system: E. coli V102G mutant strain (SbmA); parameters: method as in Corbalan et al., 2013; conditions: ref Corbalan et al., 2013; cited from earlier work
E. coli C600 = format: cell-based, Escherichia coli; conditions: Mueller-Hinton broth, 10^6 CFU/ml, 0.1% BSA, 37°C, 24 h, median of at least 3 experiments
Protocol: as §2

E. coli ML-35p [10] = format: cell-based, Escherichia coli; conditions: Mueller-Hinton broth, 10^6 CFU/ml, 0.1% BSA, 37°C, 24 h, median of at least 3 experiments
Protocol: as §2

M. luteus B-1314 = format: cell-based, Micrococcus luteus; conditions: Mueller-Hinton broth, 10^6 CFU/ml, peptide diluted in 0.1% BSA, 37°C, 24 h, median of at least 3 experiments in triplicate
Protocol: as §2

S. aureus 209P = format: cell-based, Staphylococcus aureus; conditions: Mueller-Hinton broth, 10^6 CFU/ml, 0.1% BSA, 37°C, 24 h, median of at least 3 experiments
Protocol: as §2

S. aureus ATCC 29213 = format: cell-based, Staphylococcus aureus; conditions: Mueller-Hinton broth, 10^6 CFU/ml, 0.1% BSA, 37°C, 24 h, median of at least 3 experiments
Protocol: (§3) Briefly, mid-log phase bacterial test cultures were diluted with the 2× Mueller-Hinton broth (MH, Sigma) supplemented with 1.8% NaCl or without it so that to reach a final cell concentration of 10^6 CFU/ml. 50 μl aliquots of the obtained bacterial suspension were added to 50 μl of the peptide solutions serially diluted with 0.1% water solution of bovine serum albumin (BSA) in 96-well flat-bottom polystyrene microplates (Eppendorf #0030730011). […] The results were expressed as the median values determined on the basis of at least three independent experiments performed in triplicate.

E. faecalis ATCC 29212 = format: cell-based, Enterococcus faecalis; conditions: Mueller-Hinton broth, 10^6 CFU/ml, 0.1% BSA, 37°C, 24 h, median of at least 3 experiments
Protocol: as §3

[11] = test system: mini-ChBac7.5Nα-resistant E. coli strain; conditions: peptide alone, before addition of ChMAP-28
Protocol: as §2, with “After incubation at 37°C and 900 rpm for 24 h the minimum inhibitory concentrations (MIC) were determined as the lowest peptide concentrations that prevented growth of a test microorganism observed as visible turbidity.” left out
as §1

[12] = test system: mammalian cell lines (HEK293T, HEF); test: Cytotoxicity (MTT assay); format: cell-based, human; conditions: HEK293T and HEF, 24 h incubation
Protocol: Hemolytic activity of the peptides was tested against the fresh suspension of human red blood cells (hRBC) using the hemoglobin release assay as described previously ([Panteleev et al., 2016]). Three experiments were performed with the hRBC from blood samples obtained from independent donors. The obtained data were represented as average means with standard deviations. The cytotoxicity of the peptides against HEK293T (transformed human embryonic kidney cells) and HEF (human embryonic fibroblasts) cell lines was studied using the colorimetric 3-(4,5-dimethylthiazol-2-yl)-2,5-diphenyltetrazolium bromide (MTT) dye reduction assay according to ([Panteleev and Ovchinnikova, 2017]). Three independent experiments were performed for each peptide. Half maximal inhibitory concentration (IC50) values were estimated as described previously ([Kuzmin et al., 2018]).

K. pneumoniae (CI 287) = format: cell-based, Klebsiella pneumoniae; conditions: Mueller-Hinton broth, 10^6 CFU/ml, 0.1% BSA, 37°C, 24 h, median of at least 3 experiments
Protocol: as §2

P. aeruginosa PAO1 = format: cell-based, Pseudomonas aeruginosa; conditions: Mueller-Hinton broth, 10^6 CFU/ml, 0.1% BSA, 37°C, 24 h, median of at least 3 experiments
Protocol: as §2

B. subtilis B-886 = format: cell-based, Bacillus subtilis; conditions: Mueller-Hinton broth, 10^6 CFU/ml, 0.1% BSA, 37°C, 24 h, median of at least 3 experiments
Protocol: as §2

[13] = Table S2, XDR clinical isolate, NaCl content of medium not stated
[14] = 0.9% NaCl, Mueller-Hinton broth, 10^6 CFU/ml, 0.1% BSA, 37°C, 24 h, median of at least 3 experiments
[15] = Without NaCl, Mueller-Hinton broth, 10^6 CFU/ml, 0.1% BSA, 37°C, 24 h, median of at least 3 experiments

CC[C@H](C)CCCCC(=O)N[C@@H](CCN)C(=O)N[C@H](C(=O)N[C@@H](CCN)C(=O)N[C@H]1CCNC(=O)[C@H]([C@@H](C)O)NC(=O)[C@H](CCN)NC(=O)[C@H](CCN)NC(=O)[C@H](CC(C)C)NC(=O)[C@@H](Cc2ccccc2)NC(=O)[C@H](CCN)NC1=O)[C@@H](C)O [Polymyxin B, reference compound] (X1-[Dab]T[Dab][Dab][Dab][dF]L[Dab][Dab]T; lactam 4-C (inferred); N-terminus assumed)
increase in MIC value (E. coli ML-35p [1]): 128 fold | increase in MIC value (E. coli XDR CI 1057; after 25 passages under selection): 2048 fold | MIC value after resistance development (E. coli XDR CI 1057; selection by polymyxin B): > 256 µM | MIC [2]: >128 µM | Minimum inhibitory concentration ([3]; Table 4, strain after 26 days without antimicrobial agent (selection in MH broth with 0.9% NaCl)): 0.125 µM (≈ 0.15 µg/mL) | Minimum inhibitory concentration [4]: 0.06 µM | Minimum inhibitory concentration ([5]; Table 4, strain after 26 days with mini-ChBac7.5Nα (selection in MH broth with 0.9% NaCl)): 0.125 µM (≈ 0.15 µg/mL) | MIC [6]: 2 µM (≈ 2.41 µg/mL) | MIC [7, 13]: 0.125 µM (≈ 0.15 µg/mL) | MIC [8]: 0.25 µM (≈ 0.301 µg/mL) | MIC (E. cloacae (XDR CI 4172); [13]): 4 µM (≈ 4.81 µg/mL) | Minimum inhibitory concentration (E. coli (XDR CI 1057); Table 4, strain at 0 days of selection experiment (selection in MH broth with 0.9% NaCl)): 0.125 µM (≈ 0.15 µg/mL) | Minimum inhibitory concentration (E. coli (XDR CI 1057); [13]): 0.125 µM (≈ 0.15 µg/mL)

Bac7(1–16): minimal active fragment of the bovine 60-residue Pro-rich peptide Bac7 (RRIRPRPPRLPRPRPR; Bactenecin 7; UniProt P19661 131-146, looked up, fragment)
MIC [9]: 156 µM

RRLRPRRPRLPRPRPR [mini-ChBac7.5Nα(1–16)]
Minimum inhibitory concentration (E. coli C600; 0.9% NaCl): 16 µM | Minimum inhibitory concentration (E. coli C600; Without NaCl): 2 µM | Minimum inhibitory concentration (E. coli ML-35p [10]; 0.9% NaCl): 8 µM | Minimum inhibitory concentration (E. coli ML-35p [10]; Without NaCl): 0.5 µM | Minimum inhibitory concentration (M. luteus B-1314; 0.9% NaCl): 8 µM | Minimum inhibitory concentration (M. luteus B-1314; Without NaCl): 1 µM | Minimum inhibitory concentration (S. aureus 209P; 0.9% NaCl): >32 µM | Minimum inhibitory concentration (S. aureus 209P; Without NaCl): 8 µM | Minimum inhibitory concentration (S. aureus ATCC 29213; 0.9% NaCl): >32 µM | Minimum inhibitory concentration (S. aureus ATCC 29213; Without NaCl): >32 µM | Minimum inhibitory concentration (E. faecalis ATCC 29212; 0.9% NaCl): >32 µM | Minimum inhibitory concentration (E. faecalis ATCC 29212; Without NaCl): >32 µM | Minimum inhibitory concentration ([3]; With 0.9% NaCl, control strain, 26 days without antimicrobial agent): 16 µM | Minimum inhibitory concentration ([3]; Without salt, control strain, 26 days without antimicrobial agent): 2 µM | MIC of the individual peptide [11]: > 256 µM | Minimum inhibitory concentration ([5]; With 0.9% NaCl, resistant strain, 26 days with mini-ChBac7.5Nα): >256 µM | Minimum inhibitory concentration ([5]; Without salt, resistant strain, 26 days with mini-ChBac7.5Nα): 16 µM | concentrations at which cytotoxic activity was shown [12]: > 25 µM | Minimum inhibitory concentration (K. pneumoniae (CI 287); 0.9% NaCl): >32 µM | Minimum inhibitory concentration (K. pneumoniae (CI 287); Without NaCl): 4 µM | MIC [7, 14]: >32 µM | MIC [7, 15]: 4 µM | Minimum inhibitory concentration (P. aeruginosa PAO1; 0.9% NaCl): >32 µM | Minimum inhibitory concentration (P. aeruginosa PAO1; Without NaCl): 16 µM | MIC (E. cloacae (XDR CI 4172); [14]): >32 µM | MIC (E. cloacae (XDR CI 4172); [15]): 1 µM | Minimum inhibitory concentration (B. subtilis B-886; 0.9% NaCl): >32 µM | Minimum inhibitory concentration (B. subtilis B-886; Without NaCl): 1 µM

Reference: paper PMC6284057, “Combined Antibacterial Effects of Goat Cathelicidins With Different Mechanisms of Action” (Frontiers in Microbiology, 2018)
